These results are taken from patent publication US8217031B2, “Heteroaryl derivatives” (Nippon Shinyaku Co., Ltd., priority 2007, dated 2012).

In assay [1] the target is T1, [3H]serotonin re-uptake in synaptosome (Rattus norvegicus, UniProt P31652).
T1 construct: to give a synaptosome solution; from tissue; host or cells: rat cerebral cortex synaptosomes (male SD rats)
Nature of the assay: Inhibition of serotonin reuptake in rat cerebral cortex synaptosome. It is filed as biochemical. Conditions: Ki calculated from IC50 and Kd, read-out: Serotonin Reuptake Inhibiting Activity, Ki value. The procedure: (§1) Experiments for Inhibition of Serotonin Reuptake and Experiments for Inhibition of Norepinephrine Reuptake
(§2) Cerebral cortex of male SD rats (JAPAN SLC Inc.), over six weeks of age was excised and a 0.32M sucrose solution was added thereto in an amount of 10 mL per gram of the cerebral cortex followed by homogenizing. The homogenized solution was centrifuged, the supernatant thereof was further centrifuged at high speed and, to the resulting pellets, a PSS solution (pH 7.4; comprising 150 mM of NaCl, 4 mM of KCl, 1 mM of MgCl2, 2.5 mM of HEPES, 0.9 mg/mL of glucose, 0.176 mg/mL of ascorbic acid and 1 mM of pargylin) was added in an amount of 10 mL per gram of the pellets to give a synaptosome solution. A compound to be tested (100 μL) was added to 100 μL of the synaptosome solution and 700 μL of a 50 mM Tris buffer (pH 7.4; trihydroxylaminomethane) followed by subjecting to pre-incubation at 37° C. for 5 minutes. After the pre-incubation, 100 μL of [^3H]serotonin or [^3H]norepinephrine diluted to 10 nM and 20 nM, respectively, with a Tris buffer was added thereto followed by incubating at 37° C. for 5 minutes.
(§3) Synaptosome was recovered on a GF/B filter using a cell harvester and further washed three times using a washing solution (50 mM Tris buffer; pH 7.4; 4° C.). The filter was transferred to a vial, a scintillator was added thereto and the radiation activity was measured using a liquid scintillation counter.
(§4) Incidentally, the non-specific reaction was defined as the radiation activity under ice-cooling (4° C.) and the difference between the total radiation activity and the radiation activity under the non-specific reaction was adopted as the radiation activity specifically re-uptaken in the synaptosome. IC50 value was determined from the re-uptake inhibition rate in the presence of a test compound and, from IC50 value and the Kd value of [^3H]serotonin or [^3H]norepinephrine, Ki value of the test compound showing a re-uptake inhibiting activity of serotonin or norepinephrine, respectively, was calculated.

In assay [2] the target is T2, [3H]norepinephrine re-uptake in synaptosome (Rattus norvegicus, UniProt Q9WTR4).
T2 construct: to give a synaptosome solution; from tissue; host or cells: rat cerebral cortex synaptosomes (male SD rats)
Nature of the assay: Inhibition of norepinephrine reuptake in rat cerebral cortex synaptosome. To be noted: Ki calculated from IC50 and Kd, read-out: Norepinephrine Reuptake Inhibiting Activity, Ki value. It counts as biochemical. Here is the method: as §1, §2, §3, §4

Another assay deals with rats under anesthesia. Nature of the assay: Measurement of urine leak point pressure in rats under anesthesia. To be noted: intravenous administration of not more than 10 mg/kg; female rats, urethane anesthesia, thoracic spine cut at T8 to T9. It is filed as in vivo, rat. Here is the method: Measurement of Urine Leak Point Pressure in Rats Under Anesthesia Under anesthesia with urethane (1.2 g/kg; subcutaneous administration), the thoracic spine of female rats of 8 to 12 weeks of age (Japan SLC Inc.) was cut at the level of T8 to T9 so that the micturition reflex was made to disappear, then the abdomen was subjected to a median incision to expose the bladder and then a cannula was inserted into the bladder. An appropriate amount (ca. 0.4 mL) of a physiological saline was previously infused into the bladder, both sides of the bladder were gradually pressed with two cotton buds and the inner pressure of the bladder when the physiological saline solution leaked out from the urethral orifice was measured as a pressure upon leakage of urine. The measurement was repeated several times until the measured values became stable and, after that, the test compound was intravenously administered and a pharmacological effect of the test compound was evaluated.

Structures can show the parent of a compound that is named as a salt.

T2 sequence (Q9WTR4 1-597): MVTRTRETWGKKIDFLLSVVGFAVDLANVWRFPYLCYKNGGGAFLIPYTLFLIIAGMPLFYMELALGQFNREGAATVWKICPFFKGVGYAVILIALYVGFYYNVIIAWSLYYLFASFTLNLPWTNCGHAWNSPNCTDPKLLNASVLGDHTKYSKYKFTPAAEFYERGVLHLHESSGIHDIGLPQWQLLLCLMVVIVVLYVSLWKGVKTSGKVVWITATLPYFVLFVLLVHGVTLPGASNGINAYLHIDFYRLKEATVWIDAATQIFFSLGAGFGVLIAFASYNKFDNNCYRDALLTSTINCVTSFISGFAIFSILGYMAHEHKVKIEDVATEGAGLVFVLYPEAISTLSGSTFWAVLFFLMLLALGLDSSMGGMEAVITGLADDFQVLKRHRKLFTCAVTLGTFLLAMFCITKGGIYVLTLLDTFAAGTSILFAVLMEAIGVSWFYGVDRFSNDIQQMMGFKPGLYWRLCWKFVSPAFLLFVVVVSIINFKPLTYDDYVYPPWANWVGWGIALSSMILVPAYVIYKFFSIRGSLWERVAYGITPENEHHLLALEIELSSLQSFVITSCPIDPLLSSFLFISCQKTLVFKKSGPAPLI
T1 sequence (P31652 whole entry): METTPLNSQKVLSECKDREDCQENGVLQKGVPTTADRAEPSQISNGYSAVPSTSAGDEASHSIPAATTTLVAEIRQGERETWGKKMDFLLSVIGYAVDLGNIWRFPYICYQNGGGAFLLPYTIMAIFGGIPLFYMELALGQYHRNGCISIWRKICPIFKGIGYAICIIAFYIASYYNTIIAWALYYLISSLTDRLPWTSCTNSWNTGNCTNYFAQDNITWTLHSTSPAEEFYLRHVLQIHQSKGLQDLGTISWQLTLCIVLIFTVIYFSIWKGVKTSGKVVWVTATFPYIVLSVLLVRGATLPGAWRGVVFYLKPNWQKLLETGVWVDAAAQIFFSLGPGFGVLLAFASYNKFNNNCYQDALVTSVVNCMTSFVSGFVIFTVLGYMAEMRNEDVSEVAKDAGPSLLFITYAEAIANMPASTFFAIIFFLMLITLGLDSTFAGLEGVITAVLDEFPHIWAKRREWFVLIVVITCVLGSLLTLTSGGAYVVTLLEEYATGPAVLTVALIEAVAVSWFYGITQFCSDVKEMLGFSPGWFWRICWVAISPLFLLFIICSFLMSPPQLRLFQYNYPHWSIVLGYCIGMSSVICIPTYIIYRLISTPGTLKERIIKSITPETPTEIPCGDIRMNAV

What is called Ki is a measure of affinity in units of concentration, obtained from inhibition or displacement. On to `CN1CCC(Oc2ccc(C(N)=O)cc2Cl)c2ccoc2C1` (stereo not shown) [Example 225, 4-(2-Chloro-4-carbamoylphenyloxy)-7-methyl-5,6,7,8-tetrahydro-4H-furo[2,3-c]azepine hydrochloride], for which the Ki was 18.3 nM in assay [1] and 11.7 nM in assay [2].
On to `Cc1cc2c(s1)CN(C)CCC2Oc1cccc(Cl)c1Cl` (stereo not shown) [Example 148, 4-(2,3-Dichlorophenyloxy)-2,7-dimethyl-5,6,7,8-tetrahydro-4H-thieno[2,3-c]azepine hydrochloride], for which the Ki is 2.1 nM in assay [1] and 2 nM in assay [2].
On to `CN1CCC(Oc2ccc(Cl)c3ccccc23)c2sccc2C1` (stereo not shown) [Example 115, 8-(4-Chloronaphthalen-1-yloxy)-5-methyl-5,6,7,8-tetrahydro-4H-thieno[3,2-c]azepine hydrochloride], for which the Ki was 1.2 nM in assay [1] and 70.7 nM in assay [2].
`Cc1cc2c(s1)CN(C)CC2Oc1ccc(Br)c(Br)c1` (stereo not shown) [Example 98, 4-(3,4-Dibromophenyloxy)-2,6-dimethyl-4,5,6,7-tetrahydrothieno[2,3-c]pyridine hydrochloride]: the Ki in assay [1] is 8.6 nM; in assay [2], 455 nM.
As to `Cc1cc2c(o1)CN(C)CC2Oc1ccc(Cl)c2ccccc12` (stereo not shown) [Example 84, 4-(4-Chloronaphthalene-1-yloxy)-2,6-dimethyl-4,5,6,7-tetrahydrofuro[2,3-c]pyridine hydrochloride], the Ki in assay [1] was 7.9 nM; in assay [2], 207 nM.
For `CN1CCC(Oc2cccc3ccccc23)c2occc2C1` (stereo not shown) [Example 157, 5-Methyl-8-(naphthalen-1-yloxy)-5,6,7,8-tetrahydro-4H-furo[3,2-c]azepine] the same measures were 6.8 nM and 57.5 nM.
Regarding `CN1CCC(Oc2cccc(Cl)c2Cl)c2ccoc2C1.Cl` (single isomer, unassigned; (+)) [Example 400, (+)-4-(2,3-Dichlorophenyloxy)-7-methyl-5,6,7,8-tetrahydro-4H-furo[2,3-c]azepine hydrochloride], the Ki in assay [1] is 0.5 nM; in assay [2], 2.4 nM. In the assay with rats under anesthesia, the “leak point pressure (pressure upon leakage of urine)” value (“leak point pressure” below) is “raised the leak point pressure”.
Take `CN1CCC(Oc2cccc3ccccc23)c2ccoc2C1` (stereo not shown) [Example 179, 7-Methyl-4-(naphthalen-1-yloxy)-5,6,7,8-tetrahydro-4H-furo[2,3-c]azepine hydrochloride]: the results for the Ki in assay [1] and in assay [2] were 1 nM and 24.4 nM, respectively.
In the case of `Cc1cc2c(s1)CN(C)CCC2Oc1cccc2ccccc12.Cl` (stereo not shown) [Example 102, 2,7-Dimethyl-4-(naphthalen-1-yloxy)-5,6,7,8-tetrahydro-4H-thieno[2,3-c]azepine hydrochloride], the Ki in assay [1] is 3.4 nM; in assay [2], 4 nM. In the assay with rats under anesthesia, the “leak point pressure” value is given as “raised the leak point pressure”.
For the compound `Cc1cc2c(s1)CN(C)CCC2Oc1ccc(C(F)(F)F)cc1.Cl` (stereo not shown) [Example 133, 2,7-dimethyl-4-[4-(trifluoromethyl)phenyloxy]-5,6,7,8-tetrahydro-4H-thieno[2,3-c]azepine hydrochloride], in the assay with rats under anesthesia, the “leak point pressure” value is “raised the leak point pressure”.
For `CN1Cc2occc2C(Oc2ccc(Br)c(Cl)c2)C1` (stereo not shown) [Example 66, 4-(4-Bromo-3-chlorophenyloxy)-6-methyl-4,5,6,7-tetrahydrofuro[2,3-c]pyridine hydrochloride], the Ki in assay [1] is 3.9 nM; in assay [2], 484 nM.
Take `CN1Cc2occc2C(Oc2ccc(Cl)c(Cl)c2)C1.Cl` (stereo not shown) [Example 21, 4-(3,4-Dichlorophenyloxy)-6-methyl-4,5,6,7-tetrahydrofuro[2,3-c]pyridine hydrochloride]: the “leak point pressure” value with rats under anesthesia is “raised the leak point pressure”.
With `CN1Cc2ccsc2C(Oc2cccc3ccccc23)C1` (stereo not shown) [Example 2, 5-Methyl-7-(naphthalen-1-yloxy)-4,5,6,7-tetrahydrothieno[3,2-c]pyridine], the Ki in assay [1] was 27.2 nM; in assay [2], 478 nM.
For `Cc1cc2c(o1)CN(C)CCC2Oc1cccc2ccccc12` (stereo not shown) [Example 140, 2,7-Dimethyl-4-(naphthalen-1-yloxy)-5,6,7,8-tetrahydro-4H-furo[2,3-c]azepine] the same measures were 4.1 nM and 8.4 nM.
For `Cc1cc2c(s1)CN(C)CCC2Oc1ccc(Br)c(Br)c1` (stereo not shown) [Example 135, 4-(3,4-Dibromophenyloxy)-2,7-dimethyl-5,6,7,8-tetrahydro-4H-thieno[2,3-c]azepine hydrochloride], in assay [1], the Ki is 5.4 nM.
For the compound `CN1CCC(Oc2cccc(Cl)c2Cl)c2ccsc2C1` (stereo not shown) [Example 149, 4-(2,3-Dichlorophenyloxy)-7-methyl-5,6,7,8-tetrahydro-4H-thieno[2,3-c]azepine hydrochloride], the Ki is 1.8 nM in assay [1] and 1.7 nM in assay [2].
For the compound `CN1CCC(Oc2cccc(Br)c2Cl)c2ccoc2C1` (stereo not shown) [Example 177, 4-(3-Bromo-2-chlorophenyloxy)-7-methyl-5,6,7,8-tetrahydro-4H-furo[2,3-c]azepine], the Ki was 3.1 nM in assay [1] and 27.5 nM in assay [2].
On to `Cc1cc2c(o1)CN(C)CCC2Oc1cccc(Cl)c1Cl` (stereo not shown) [Example 163, 4-(2,3-Dichlorophenyloxy)-2,7-dimethyl-5,6,7,8-tetrahydro-4H-furo[2,3-c]azepine], for which the Ki was 3.8 nM in assay [1] and 12 nM in assay [2].
With `Cc1cc2c(o1)CN(C)CC2Oc1ccc(Cl)c(Cl)c1` (stereo not shown) [Example 57, 4-(3,4-Dichlorophenyloxy)-2,6-dimethyl-4,5,6,7-tetrahydrofuro[2,3-c]pyridine hydrochloride], the Ki in assay [1] was 14.1 nM; in assay [2], 244 nM.
For `CN1CCC(Oc2cccc(Cl)c2Cl)c2occc2C1` (stereo not shown) [Example 168, 8-(2,3-Dichlorophenyloxy)-5-methyl-5,6,7,8-tetrahydro-4H-furo[3,2-c]azepine] the same measures were 6.6 nM and 23.8 nM.
The like results for `CN1CCC(Oc2cccc(Cl)c2Cl)c2ccoc2C1` (stereo not shown) [Example 213, 4-(2,3-Dichlorophenyloxy)-7-methyl-5,6,7,8-tetrahydro-4H-furo[2,3-c]azepine hydrochloride] were, in that order, 0.9 nM and 4.1 nM.
With `CN1CCC(Oc2ccc(Cl)c(Cl)c2)c2sccc2C1` (stereo not shown) [Example 108, 8-(3,4-Dichlorophenyloxy)-5-methyl-5,6,7,8-tetrahydro-4H-thieno[3,2-c]azepine hydrochloride], the Ki was 1.7 nM in assay [1] and 64.4 nM in assay [2].
Regarding `Cc1cc2c(o1)CN(C)CCC2Oc1cccc(Br)c1Cl` (stereo not shown) [Example 200, 4-(3-Bromo-2-chlorophenyloxy)-2,7-dimethyl-5,6,7,8-tetrahydro-4H-furo[2,3-c]azepine], the Ki in assay [1] is 1.7 nM; in assay [2] it was 21.5 nM.
For `CN1CCc2sccc2C(Oc2cccc3ccccc23)C1` (stereo not shown) [Example 109, 6-Methyl-4-(naphthalen-1-yloxy)-5,6,7,8-tetrahydro-4H-thieno[2,3-d]azepine hydrochloride] the same measures were 8.9 nM and 66.2 nM.
For `CCN1Cc2sccc2C(Oc2ccc(Cl)c(Cl)c2)C1` (stereo not shown) [Example 24, 4-(3,4-Dichlorophenyloxy)-6-ethyl-4,5,6,7-tetrahydrothieno[2,3-c]pyridine hydrochloride], the Ki in assay [1] was 9.5 nM; in assay [2], 279 nM.
